Measured values reported in ChEMBL document CHEMBL1153768, “New potential AChE inhibitor candidates” (Eur J Med Chem, 2009).

What was measured:
[1] = target: Acetylcholinesterase (Electrophorus electricus) (UniProt O42275); experiment: (§1) Inhibition of Electrophorus electricus AChE
[2] = target: Acetylcholinesterase (Electrophorus electricus, UniProt O42275); experiment: as §1
[3] = target: Acetylcholinesterase (Electrophorus electricus) (UniProt O42275); experiment: Inhibition of Electrophorus electricus AChE at 100 uM

Chain of Acetylcholinesterase (O42275 whole entry): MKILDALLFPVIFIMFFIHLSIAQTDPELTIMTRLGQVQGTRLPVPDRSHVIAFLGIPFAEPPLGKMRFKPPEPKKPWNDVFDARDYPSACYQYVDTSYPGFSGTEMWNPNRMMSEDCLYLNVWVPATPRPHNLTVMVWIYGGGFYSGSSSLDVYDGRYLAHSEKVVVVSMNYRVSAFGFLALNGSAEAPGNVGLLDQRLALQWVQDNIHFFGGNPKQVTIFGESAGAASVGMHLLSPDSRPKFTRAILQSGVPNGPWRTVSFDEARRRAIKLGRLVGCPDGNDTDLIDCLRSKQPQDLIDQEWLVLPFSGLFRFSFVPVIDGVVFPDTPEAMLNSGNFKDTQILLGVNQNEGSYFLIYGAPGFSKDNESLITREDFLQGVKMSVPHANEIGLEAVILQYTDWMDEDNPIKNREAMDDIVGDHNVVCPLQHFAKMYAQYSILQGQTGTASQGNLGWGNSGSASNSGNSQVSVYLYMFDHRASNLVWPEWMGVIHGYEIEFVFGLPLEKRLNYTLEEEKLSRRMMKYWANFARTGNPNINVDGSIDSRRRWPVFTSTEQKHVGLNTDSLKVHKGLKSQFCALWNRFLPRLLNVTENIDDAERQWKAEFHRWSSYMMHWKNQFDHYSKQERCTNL
Chain of Acetylcholinesterase (Electrophorus electricus) (O42275 24-633 limits assumed): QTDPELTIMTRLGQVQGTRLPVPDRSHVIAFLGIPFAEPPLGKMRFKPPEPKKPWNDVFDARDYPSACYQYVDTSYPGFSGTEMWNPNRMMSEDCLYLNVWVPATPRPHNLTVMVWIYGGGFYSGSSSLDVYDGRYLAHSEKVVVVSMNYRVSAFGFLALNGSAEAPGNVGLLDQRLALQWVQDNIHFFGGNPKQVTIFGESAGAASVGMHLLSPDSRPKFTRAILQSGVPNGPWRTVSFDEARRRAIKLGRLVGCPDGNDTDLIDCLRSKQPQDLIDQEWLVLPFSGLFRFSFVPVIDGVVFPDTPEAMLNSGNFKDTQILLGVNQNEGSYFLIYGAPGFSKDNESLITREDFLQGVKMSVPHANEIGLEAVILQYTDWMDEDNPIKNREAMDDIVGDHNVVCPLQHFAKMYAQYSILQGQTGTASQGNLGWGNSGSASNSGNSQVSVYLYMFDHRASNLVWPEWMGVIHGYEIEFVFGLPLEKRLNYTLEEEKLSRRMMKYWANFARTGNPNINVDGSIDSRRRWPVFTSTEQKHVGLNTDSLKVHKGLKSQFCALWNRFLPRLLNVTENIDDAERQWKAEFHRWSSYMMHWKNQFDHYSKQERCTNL

CCCCCCCCCCCCCCC(c1cccc(OC(=O)N(C)C)c1)N1CCCC1 (stereo not drawn)
inhibition [1]: Dose-dependent effect
IC50 [2]: 84.3 µM

CCCCCCCCCCCCCCC(c1cccc(OC(=O)N(C)C)c1)N1CCCCC1 (stereo not drawn)
inhibition [3]: 25%

CCCCCCCCCCCCCCC(c1cccc(OC(=O)N(C)C)c1)N(C)C (stereo not drawn)
inhibition [1]: Dose-dependent effect
IC50 [2]: 50 µM

CCCCCCCCCCCCCCC(c1cccc(OC(=O)N(C)C)c1)N(C)Cc1ccccc1 (stereo not drawn)
inhibition [3]: 25%

CCCCCCCCCCCCCCC(c1cccc(OC(=O)N(C)C)c1)N(CC)CC (stereo not drawn)
inhibition [1]: Dose-dependent effect
IC50 [2]: 251 µM
